Measured values taken from US5462935A, “Cephalosporin compounds” (Lucky Limited, priority 1990, dated 1995).
Converted amounts (≈) assume the structure as drawn. Where two headings read alike, the source gives them in different places.

How the values were obtained:
[1] = test system: Klebsiella pneumoniae ATCC 10031; experiment: minimal inhibitory concentration, two-fold agar dilution; type: cell-based; conditions: ATCC10031, Muller-Hinton agar, 37° C., 20 hours
Method: (§1) These NIC values were taken by employing a two-fold dilution method: that is, two-fold serial dilutions of each of the test compounds were made and dispersed in a Muller-Hinton agar medium; 2 μl of the standard test strain which had the 10^7 CFU (Colony Forming Unit) per ml was inoculated on the medium; and these were incubated at 37° C. for 20 hours.

[2] = test system: Bacillus cereus ATCC 11778; experiment: as above; type: cell-based
Method: as §1

[3] = test system: Providencia rettgeri ATCC 9250; experiment: as above; type: cell-based; conditions: ATCC9250, Muller-Hinton agar, 37° C., 20 hours
Method: as §1

[4] = test system: Pseudomonas aerugionsa ATCC 27853; experiment: as above; type: cell-based; conditions: ATCC27853, Muller-Hinton agar, 37° C., 20 hours
Method: as §1

[5] = test system: Shigella sonnei ATCC 11060; experiment: as above; type: cell-based; conditions: ATCC11060, Muller-Hinton agar, 37° C., 20 hours
Method: as §1

[6] = test system: Shigella flexneri ATCC 11836; experiment: as above; type: cell-based; conditions: ATCC11836, Muller-Hinton agar, 37° C., 20 hours
Method: as §1

[7] = test system: Salmonella typhimurium ATCC 14028; experiment: as above; type: cell-based; conditions: Salmonella enterica, Muller-Hinton agar, 37° C., 20 hours
Method: as §1

[8] = test system: Citrobacter freundii ATCC 8090; experiment: as above; type: cell-based; conditions: ATCC8090, Muller-Hinton agar, 37° C., 20 hours
Method: as §1

[9] = test system: Staphylococcus aureus ATCC 6638p; experiment: as above; type: cell-based; conditions: ATCC6638P, 20 h
Method: as §1

[10] = test system: Staphylococcus epidermidis ATCC 10537; experiment: as above; type: cell-based; conditions: ATCC10537, Muller-Hinton agar, 37° C., 20 hours
Method: as §1

[11] = test system: Acinetobacter calcoaceticus ATCC 15473; experiment: as above; type: cell-based; conditions: ATCC15473, Muller-Hinton agar, 37° C., 20 hours
Method: as §1

[12] = test system: Serratia marcescens ATCC 27117; experiment: as above; type: cell-based; conditions: ATCC27117, Muller-Hinton agar, 37° C., 20 hours
Method: as §1

[13] = test system: Streptococcus faecalis ATCC 29212; experiment: as above; type: cell-based; conditions: Enterococcus faecalis, ATCC29212, Muller-Hinton agar, 37° C., 20 hours
Method: as §1

[14] = test system: Escherichia coli ATCC 10536; experiment: as above; type: cell-based; conditions: ATCC10536, Muller-Hinton agar, 37° C., 20 hours
Method: as §1

[15] = test system: Pseudomonas aerugionsa ATCC 10145; experiment: as above; type: cell-based; conditions: ATCC10145, Muller-Hinton agar, 37° C., 20 hours
Method: as §1

[16] = test system: Micrococcus luteus ATCC 9341; experiment: as above; type: cell-based; conditions: ATCC9341, Muller-Hinton agar, 37° C., 20 hours
Method: as §1

[17] = test system: Pseudomonas aeruginosa ATCC 25619; experiment: as above; type: cell-based; conditions: ATCC25619, Muller-Hinton agar, 37° C., 20 hours
Method: as §1

[18] = test system: Bacillus megaterium ATCC 9885; experiment: as above; type: cell-based; conditions: Priestia megaterium
Method: as §1

[19] = test system: Enterobacter cloacae ATCC 27508; experiment: as above; type: cell-based; conditions: ATCC27508, Muller-Hinton agar, 37° C., 20 hours
Method: as §1

[20] = test system: Enterobacter aerogenes ATCC 29751; experiment: as above; type: cell-based; conditions: Klebsiella aerogenes
Method: as §1

[21] = test system: Escherichia coli ATCC 25922; experiment: as above; type: cell-based; conditions: ATCC25922, Muller-Hinton agar, 37° C., 20 hours
Method: as §1

ATCC 12228 = experiment: as above; type: cell-based; conditions: Staphylococcus faecalis, ATCC12228, 20 h
Method: as §1

[22] = test system: Proteus vulgaris ATCC 6059; experiment: as above; type: cell-based; conditions: ATCC6059, Muller-Hinton agar, 37° C., 20 hours
Method: as §1

[23] = test system: Proteus mirabilis ATCC 25933; experiment: as above; type: cell-based; conditions: ATCC25933, Muller-Hinton agar, 37° C., 20 hours
Method: as §1

[24] = acute toxicity test, intravenous; conditions: mouse, in vivo, ICR mice, observed for 14 days
Text: The results are shown in the last row of Table 2.

[25] = test system: Morganella morganii ATCC 8076h; experiment: minimal inhibitory concentration, two-fold agar dilution; type: cell-based; conditions: ATCC8076H, 20 h
Method: as §1

[26] = in vivo absorbency test (plasma concentration, pharmacokinetic parameters); design: species or system SD rats (male); conditions: rat, in vivo, iv, 20 mg/kg
Method: In addition to the in vitro tests described above, in vivo absorbency tests for the two selected compounds of formulas (I-S-1) and (I-R-1), along with Ceftadizime, were carried out by administering intravenously, in a dose of 20 mg/kg, each of these two compounds into SD rats (male) weighing 220 to 340 g; […], which were analyzed by employing the bio-assay or agar well method. About 10 to 15 rats were used for each of the compounds.
Notes: (1) Two-Compartment Model
(3) Tested Animal: Rats(male; 220-340 g)

[27] = Bacillus cereus, ATCC11778, 20 h

Compound | MIC [1] | MIC [3] | MIC [4] | MIC [5] | MIC [6] | MIC [7] | MIC [8] | MIC [9] | MIC [10] | MIC [11] | MIC [12] | MIC [13] | MIC [14] | MIC [15] | MIC [16] | MIC [17] | MIC [19] | MIC (ATCC 12228) | MIC [22] | MIC [23] | other results
Cc1c(N)nc(SCC2=C(C(=O)[O-])N3C(=O)C(NC(=O)/C(=N\O[C@@H](C)C(=O)O)c4csc(N)n4)[C@H]3SC2)[n+](N)c1N (stereo partly drawn) [I-S-7, 7-[(Z)-2-(2-aminothiazol-4-yl)-2-[(S)-1-carboxyeth-1-oxyimino]acetamido]-3-[(5-methyl-1,4,6-triaminopyrimidinium-2-yl)thiomethyl]-3-cephem-4-carboxylate] | 0.016 µg/mL (≈ 0.0256 µM) | ≤ 0.008 µg/mL | 0.5 µg/mL (≈ 0.8 µM) | 0.031 µg/mL (≈ 0.0496 µM) | 0.016 µg/mL (≈ 0.0256 µM) | 0.063 µg/mL (≈ 0.101 µM) | 0.016 µg/mL (≈ 0.0256 µM) | 4 µg/mL (≈ 6.4 µM) | 2 µg/mL (≈ 3.2 µM) | 2 µg/mL (≈ 3.2 µM) | 0.063 µg/mL (≈ 0.101 µM) | > 128 µg/mL | 0.031 µg/mL (≈ 0.0496 µM) | 1 µg/mL (≈ 1.6 µM) | 0.25 µg/mL (≈ 0.4 µM) | 0.5 µg/mL (≈ 0.8 µM) | ≤ 0.008 µg/mL | 1 µg/mL (≈ 1.6 µM) | 0.016 µg/mL (≈ 0.0256 µM) | 0.016 µg/mL (≈ 0.0256 µM) | MIC ([2]; ATCC11778, Bacillus cereus ATCC 11778, Muller-Hinton agar, 37° C., 20 hours, read-out: MIC): 84 µg/mL (≈ 134 µM); MIC ([18]; ATCC9885, Bacillus megaterium ATCC 9885, Muller-Hinton agar, 37° C., 20 hours, read-out: MIC): 26 µg/mL (≈ 41.6 µM); MIC ([20]; ATCC29751, Enterobacter aerogenes ATCC 29751, Muller-Hinton agar, 37° C., 20 hours, read-out: MIC): 0.15 µg/mL (≈ 0.24 µM); MIC [21]: 0.016 µg/mL (≈ 0.0256 µM); LD50 at 336 h [24]: > 5000 mg/kg
CC[n+]1c(N)cc(N)nc1SCC1=C(C(=O)[O-])N2C(=O)C(NC(=O)/C(=N\O[C@H](C)C(=O)O)c3csc(N)n3)[C@H]2SC1 (stereo partly drawn) [I-R-3, 7-[(Z)-2-(2-aminothiazol-4-yl)-2-[(R)-1-carboxyeth-1-oxyimino]acetamido]-3-[(4,6-diamino-1-ethylpyrimidinium-2-yl)thiomethyl]-3-cephem-4-carboxylate] | 0.031 µg/mL (≈ 0.0497 µM) | ≤ 0.008 µg/mL | 1 µg/mL (≈ 1.6 µM) | 0.031 µg/mL (≈ 0.0497 µM) | 0.031 µg/mL (≈ 0.0497 µM) | 0.13 µg/mL (≈ 0.208 µM) | 0.063 µg/mL (≈ 0.101 µM) | 2 µg/mL (≈ 3.21 µM) | 2 µg/mL (≈ 3.21 µM) | 4 µg/mL (≈ 6.41 µM) | 0.063 µg/mL (≈ 0.101 µM) | > 128 µg/mL | 0.063 µg/mL (≈ 0.101 µM) | 2 µg/mL (≈ 3.21 µM) | 0.25 µg/mL (≈ 0.401 µM) | 1 µg/mL (≈ 1.6 µM) | 0.016 µg/mL (≈ 0.0257 µM) | 1 µg/mL (≈ 1.6 µM) | 0.031 µg/mL (≈ 0.0497 µM) | 0.031 µg/mL (≈ 0.0497 µM) | MIC [2, 27]: 128 µg/mL (≈ 205 µM); MIC ([18]; ATCC9885, 20 h): 1 µg/mL (≈ 1.6 µM); MIC ([20]; ATCC29751, 20 h): 0.5 µg/mL (≈ 0.802 µM); MIC [25]: ≤ 0.008 µg/mL; MIC [21]: 0.063 µg/mL (≈ 0.101 µM); LD50 at 336 h [24]: > 3000 mg/kg
CC(C)(O/N=C(\C(=O)N[C@@H]1C(=O)N2C(C(=O)[O-])=C(C[n+]3ccccc3)CS[C@H]12)c1csc(N)n1)C(=O)O [CTZ, Ceftazidime, reference compound] | 0.063 µg/mL (≈ 0.115 µM) |  | 1 µg/mL (≈ 1.83 µM) | 0.13 µg/mL (≈ 0.238 µM) | 0.063 µg/mL (≈ 0.115 µM) | 0.25 µg/mL (≈ 0.457 µM) | 0.13 µg/mL (≈ 0.238 µM) | 16 µg/mL (≈ 29.3 µM) | 8 µg/mL (≈ 14.6 µM) | 4 µg/mL (≈ 7.32 µM) | 0.25 µg/mL (≈ 0.457 µM) | > 128 µg/mL |  | 2 µg/mL (≈ 3.66 µM) | 0.5 µg/mL (≈ 0.915 µM) | 1 µg/mL (≈ 1.83 µM) | 0.031 µg/mL (≈ 0.0567 µM) | 4 µg/mL (≈ 7.32 µM) | 0.063 µg/mL (≈ 0.115 µM) | 0.063 µg/mL (≈ 0.115 µM) | MIC [2, 27]: 128 µg/mL (≈ 234 µM); MIC ([18]; ATCC9885, 20 h): 0.25 µg/mL (≈ 0.457 µM); MIC ([20]; ATCC29751, 20 h): 4 µg/mL (≈ 7.32 µM); MIC [25]: ≤ 0.008 µg/mL; AUC [26]: 28100 ng·h/mL; concentration at 10 min [26]: 50000 ng/mL
